According to paper PMC10475017, “Design, synthesis, computational study and cytotoxic evaluation of some new quinazoline derivatives containing pyrimidine moiety” (Scientific Reports, 2023):

Key:
[1] = test system: A549 cell line; experiment: Annexin V/PI apoptosis detection by flow cytometry; assay type: cell-based, human; details: 72 h
Description: Annexin V was applied to detect the phosphatidyl serin, which moved to outer membrane during apoptosis, and PI was used to distinguish live and dead cells.
After the incubation time, AnnexinV/PI staining using eBioscience™ Annexin V apoptosis detection kit (Invitrogen). The cells were gently harvested and washed once with 1X phosphate buffered saline (PBS), and once with 1000 μL 1X binding buffer. In the next step, the cells were suspended in 100 μL binding buffer containing 5 μL fluorescein isothiocyanate conjugated (FITC) Annexin V for 15 min and 5 μL Propodium Iodide (PI) solution. The cells were then acquired on BD FACS Calibur™ flow cytometry (BD Biosciences, San Jose, CA, USA) and apoptosis rates were calculated as the sum of early apoptosis and late apoptosis using Flowjo software.

[2] = test system: A549 cell line; experiment: Cell cycle analysis by PI flow cytometry; assay type: cell-based, human; details: 72 h; for cell cycle S population: untreated cells 4.46%
Description: For this purpose, A549 cells were treated with two concentrations of 6n (10 and 15 μM) for 72 h (Fig. 6). […] A slight decrease in the G2/M population was also observed.
The effect of 6n was also assessed according to our previous protocol. Briefly, 1 × 10^5 A549 cells were seeded in a 24-well plate in […] complete cell culture media and after 24 h, were treated with two concentrations of 6n (10 and 15 μM). After 72 h, the cells were harvested and washed twice with cold 1X pbs and stabilized with cold ethanol (70%) in drop-wised manner while vortexing. After keeping one day in the freezer, the fixed cells were washed with 1X pbs and treated with a mixture of ribonuclease (10 µg/ml) (Sigma-Aldrich, Germany) to remove RNA, and Propidium Iodide (PI, 20 µg/ml) (Sigma-Aldrich, Germany) to stain DNA. The cells were acquired on BD FACS Calibur™ flow cytometry (BD Biosciences, San Jose, CA, USA). The data were analyzed with FlowJo software packages version 10.

| SMILES | melting point [°C] | other results |
| --- | --- | --- |
| Cn1c(=O)cc(Cl)n(Cc2nc3ccc(Br)cc3c(=O)n2-c2ccccc2)c1=O [Compound 6a, 1-((6-Bromo-4-Oxo-3-Phenyl-3,4-Dihydroquinazolin-2-Yl)Methyl)-6-Chloro-3-Methylpyrimidine-2,4(1H,3H)-Dione] | 246 to 248 |  |
| Cn1c(=O)cc(Cl)n(Cc2nc3ccc(Br)cc3c(=O)n2-c2cccc(C#N)c2)c1=O [Compound 6b, 3-(6-Bromo-2-((6-Chloro-3-Methyl-2,4-Dioxo-3,4-Dihydropyrimidin-1(2H)-Yl)Methyl)-4-Oxoquinazolin-3(4H)-Yl) Benzonitrile] | 255 to 257 |  |
| Cn1c(=O)cc(Cl)n(Cc2nc3ccc(Br)cc3c(=O)n2-c2cccc(F)c2)c1=O [Compound 6c, 1-((6-Bromo-3-(3-Fluorophenyl)-4-Oxo-3,4-Dihydroquinazolin-2-Yl)Methyl)-6-Chloro-3-Methylpyrimidine-2,4(1H,3H)-Dione] | 243 to 244 |  |
| Cn1c(=O)cc(Cl)n(Cc2nc3ccc(Br)cc3c(=O)n2-c2cccc(Cl)c2)c1=O [Compound 6d, 1-((6-Bromo-3-(3-Chlorophenyl)-4-Oxo-3,4-Dihydroquinazolin-2-Yl)Methyl)-6-Chloro-3-Methylpyrimidine-2,4(1H,3H)-Dione] | 259 to 260 |  |
| Cn1c(=O)cc(Cl)n(Cc2nc3ccc(Br)cc3c(=O)n2-c2cccc(Br)c2)c1=O [Compound 6e, 1-((6-Bromo-3-(3-Bromophenyl)-4-Oxo-3,4-Dihydroquinazolin-2-Yl)Methyl)-6-Chloro-3-Methylpyrimidine-2,4(1H,3H)-Dione] | 251 to 252 |  |
| Cn1c(=O)cc(Cl)n(Cc2nc3ccc(Br)cc3c(=O)n2-c2ccc(F)cc2)c1=O [Compound 6f., 1-((6-Bromo-3-(4-Fluorophenyl)-4-Oxo-3,4-Dihydroquinazolin-2-Yl)Methyl)-6-Chloro-3-Methylpyrimidine-2,4(1H,3H)-Dione] | 240 to 242 |  |
| Cn1c(=O)cc(Cl)n(Cc2nc3ccc(Br)cc3c(=O)n2-c2ccc(Cl)cc2)c1=O [Compound 6g, 1-((6-Bromo-3-(4-Chlorophenyl)-4-Oxo-3,4-Dihydroquinazolin-2-Yl)Methyl)-6-Chloro-3-Methylpyrimidine-2,4(1H,3H)-Dione] | 225 to 226 |  |
| Cn1c(=O)cc(Cl)n(Cc2nc3ccc(Br)cc3c(=O)n2-c2ccc(F)c(Cl)c2)c1=O [Compound 6n, 1-((6-Bromo-3-(3-Chloro-4-Fluorophenyl)-4-Oxo-3,4-Dihydroquinazolin-2-Yl)Methyl)-6-Chloro-3-Methylpyrimidine-2,4(1H,3H)-Dione] |  | early apoptotic cells Q3 (Av pos/PI neg) ([1]; 5 µM): 2.61%; late apoptotic cells Q2 (Av pos/PI pos) ([1]; 5 µM): 21.2%; apoptotic death (sum of early and late apoptosis) ([1]; 15 µM): 65.08%; induction of apoptosis (in words) ([1]; 5, 10, 15 µM): significantly induced apoptotic death in the dose dependent manner; cell cycle S population ([2]; 10 μM): 8.91%; cell cycle S population ([2]; 15 μM): 11.6%; effect on cell cycle (in words) ([2]; 10 and 15 μM): could induce arrest at S-phase |
